Measurements taken from the supplement of paper PMC10307832.

Experiments:
Assay in all cases: relative viability (nuclei count vs DMSO), 5 days (fraction); higher = more cells survive
EHT 1864 + Bortezomib = compound: C1COCCN1CC2=CC(=O)C(=CO2)OCCCCCSC3=C4C=CC(=CC4=NC=C3)C(F)(F)F [EHT 1864] + CC(C)C[C@H](NC(=O)[C@H](Cc1ccccc1)NC(=O)c1cnccn1)B(O)O [Bortezomib] (partner 0.002 µM)
In short: (§1)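 Relative viability divides the nuclei count in treated wells by that in vehicle wells. Lung cancer cell lines were seeded in 1536-well plates, dosed by pin tool the next day, and fixed and stained after 5 days in one step with final 0.05% Triton X-100, 1% formaldehyde and 1 ug/ml Hoechst. Dosing was a single drug or a fixed anchor-drug dose plus five library-drug doses (not always all listed) in √10 steps, and values are medians of duplicate plates imaged at 4×.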

EHT 1864 + Tozasertib = compound: C1COCCN1CC2=CC(=O)C(=CO2)OCCCCCSC3=C4C=CC(=CC4=NC=C3)C(F)(F)F [EHT 1864] + Cc1cc(Nc2cc(N3CCN(C)CC3)nc(Sc3ccc(NC(=O)C4CC4)cc3)n2)n[nH]1 [Tozasertib] (partner 0.1 µM)
In short: as §1

EHT 1864 + AZD7762 = compound: C1COCCN1CC2=CC(=O)C(=CO2)OCCCCCSC3=C4C=CC(=CC4=NC=C3)C(F)(F)F [EHT 1864] + NC(=O)Nc1cc(-c2cccc(F)c2)sc1C(=O)N[C@H]1CCCNC1 [AZD7762] (partner 0.2 µM)
In short: as §1

EHT 1864 + Decitabine = compound: C1COCCN1CC2=CC(=O)C(=CO2)OCCCCCSC3=C4C=CC(=CC4=NC=C3)C(F)(F)F [EHT 1864] + Nc1ncn([C@H]2C[C@H](O)[C@@H](CO)O2)c(=O)n1 [Decitabine] (partner 2 µM)
In short: as §1

NCI-H1651
relative viability (EHT 1864 + Bortezomib; first compound 0.04 µM): 0.988
relative viability (EHT 1864 + Bortezomib; first compound 0.1265 µM): 0.89
relative viability (EHT 1864 + Bortezomib; first compound 0.4 µM): 0.974
relative viability (EHT 1864 + Bortezomib; first compound 1.265 µM): 0.868
relative viability (EHT 1864 + Bortezomib; first compound 4 µM): 0.929
relative viability (EHT 1864 + Tozasertib; first compound 0.04 µM): 0.631
relative viability (EHT 1864 + Tozasertib; first compound 0.1265 µM): 0.705
relative viability (EHT 1864 + Tozasertib; first compound 0.4 µM): 0.549
relative viability (EHT 1864 + Tozasertib; first compound 1.265 µM): 0.479
relative viability (EHT 1864 + Tozasertib; first compound 4 µM): 0.523
relative viability (EHT 1864 + AZD7762; first compound 0.04 µM): 0.396
relative viability (EHT 1864 + AZD7762; first compound 0.1265 µM): 0.439
relative viability (EHT 1864 + AZD7762; first compound 0.4 µM): 0.469
relative viability (EHT 1864 + AZD7762; first compound 1.265 µM): 0.482
relative viability (EHT 1864 + AZD7762; first compound 4 µM): 0.556
relative viability (EHT 1864 + Decitabine; first compound 0.04 µM): 0.55
relative viability (EHT 1864 + Decitabine; first compound 0.1265 µM): 0.695
relative viability (EHT 1864 + Decitabine; first compound 0.4 µM): 0.631
relative viability (EHT 1864 + Decitabine; first compound 1.265 µM): 0.652
relative viability (EHT 1864 + Decitabine; first compound 4 µM): 0.594

NCI-H2087
relative viability (EHT 1864 + Bortezomib; first compound 0.04 µM): 0.629
relative viability (EHT 1864 + Bortezomib; first compound 0.1265 µM): 0.569
relative viability (EHT 1864 + Bortezomib; first compound 0.4 µM): 0.753
relative viability (EHT 1864 + Bortezomib; first compound 1.265 µM): 0.739
relative viability (EHT 1864 + Bortezomib; first compound 4 µM): 0.781
relative viability (EHT 1864 + Tozasertib; first compound 0.04 µM): 0.373
relative viability (EHT 1864 + Tozasertib; first compound 0.4 µM): 0.291
relative viability (EHT 1864 + Tozasertib; first compound 1.265 µM): 0.241
relative viability (EHT 1864 + Tozasertib; first compound 4 µM): 0.202
relative viability (EHT 1864 + AZD7762; first compound 0.04 µM): 1.25
relative viability (EHT 1864 + AZD7762; first compound 0.4 µM): 1.2
relative viability (EHT 1864 + AZD7762; first compound 1.265 µM): 1.25
relative viability (EHT 1864 + AZD7762; first compound 4 µM): 1.23
relative viability (EHT 1864 + Decitabine; first compound 0.04 µM): 0.253
relative viability (EHT 1864 + Decitabine; first compound 0.4 µM): 0.267
relative viability (EHT 1864 + Decitabine; first compound 1.265 µM): 0.287
relative viability (EHT 1864 + Decitabine; first compound 4 µM): 0.3
